Assay results: publication PMC9312917 (2022)

How the values were obtained:
Assay in all cases: graphene oxide fluorescence assay
Details in all cases: 100 mM NaCl, 5 mM KCl, 2 mM MgCl2, 1 mM CaCl2; 20 mM Tris-HCl pH 7.5, room temperature; aptamer 0-400 nM titrated at fixed 1 µg/mL SQX
[1] = test system: SBA28-1 (DNA, aptamer) CCCTAGGGG
[2] = test system: SBA40-1 (DNA, aptamer) GGCTGACTGCT
[3] = test system: SBA24-1 (DNA, aptamer) GCGTGAGC

## Nc1ccc(S(=O)(=O)Nc2cnc3ccccc3n2)cc1
[1]
  Kd: 27.36 nM
[2]
  Kd: 36.73 nM
[3]
  Kd: 74.19 nM
